Where two headings read alike, the source gives them in different places.
System: Ba/F3-FGFR3-transfected cells in the presence of 10 ng/ml murine IL3
Assay: Ba/F3-FGFR3 (plus IL3) cellular proliferation counterscreen, Alamar Blue
Format: cell-based
Conditions: for IC50: Mus musculus
Outline: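 Compound in DMSO was applied to FGFR3-transfected Ba/F3 cells, which were cultured 24 h and assessed for viability by Alamar Blue reduction over 4 h (fluorescence, ex 540/em 590 nm).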

[1] = plus 10 ng/ml murine IL3, 384 well, read-out: BAF3-FGFR 3 (PLUS IL3) 384 well pIC50 (converted)
[2] = plus IL3, 96 well, read-out: BAF3-FGFR 3 (PLUS IL3) 96 well pIC50 (converted)
[3] = plus 10 ng/ml murine IL3, 384 well

## COc1cc(OC)cc(N(Cc2cccc(CN)n2)c2ccc3ncc(-c4ccc(N)nc4)nc3c2)c1 [Compound 51]
[1]
  IC50: ~8.13 µM

## COc1cc(OC)cc(N(CC2CC2)c2ccc3ncc(-c4cnn(C)n4)nc3c2)c1 [Compound 70]
[1]
  IC50: > 10 µM
[2]
  IC50: > 10 µM

## CNc1ccc(-c2cnc3ccc(N(CCCO)c4cc(OC)cc(OC)c4)cc3n2)cn1 [Compound 116]
[1]
  IC50: > 10 µM

## COc1cc(OC)cc(N(CCCO)c2ccc3ncc(-c4ccc(N5CCNCC5)nc4)nc3c2)c1 [Compound 48]
[1]
  IC50: 5.5 µM

## COc1cc(OC)cc(N(CCCO)c2ccc3ncc(-c4ccc(N5CCOCC5)nc4)nc3c2)c1 [Compound 124]
[1]
  IC50: > 10 µM

## COc1cc(OC)cc(N(CC2CC2)c2ccc3ncc(-c4cn(CCO)nn4)nc3c2)c1 [Compound 40]
[1]
  IC50: > 10 µM
[2]
  IC50: > 10 µM

## COc1cc(OC)cc(N(CCCO)c2ccc3ncc(-c4ccnc(NC(=O)OC(C)(C)C)c4)nc3c2)c1 [Compound 128]
[1]
  IC50: > 10 µM

## COc1cc(OC)cc(N(CCO)c2ccc3ncc(-c4ccc(OC)nc4)nc3c2)c1 [Compound 111]
[1]
  IC50: > 10 µM

## COc1cc(OC)cc(N(CC2CC2)c2ccc3ncc(-c4cn(C)nn4)nc3c2)c1 [Compound 71]
[1]
  IC50: > 10 µM
[2]
  IC50: > 10 µM

## COc1cc(OC)cc(N(CCNC(C)C)c2ccc3ncc(-c4ccncc4)nc3c2)c1 [Compound 12]
[1]
  IC50: > 10 µM

## COc1cc(OC)cc(N(CCO)c2ccc3ncc(-c4ccnc(C(=O)NCCCN)c4)nc3c2)c1 [Compound 123]
[1]
  IC50: > 10 µM

## COc1cc(OC)cc(N(CCO)c2ccc3ncc(-c4ccncc4)nc3c2)c1 [Compound 11]
[1]
  IC50: > 10 µM

## COc1cc(OC)cc(N(CC(OC(C)=O)C(F)(F)F)c2ccc3ncc(-c4cccnc4)nc3c2)c1 (single isomer, unassigned) [Compound 75]
[3]
  BAF3-FGFR 3 (PLUS IL3) 384 well pIC50: <5

## COCCCN(c1cc(OC)cc(OC)c1)c1ccc2ncc(-c3ccn(C)c3)nc2c1 [Compound 3]
[1]
  IC50: > 10 µM

## COc1cc(OC)cc(N(CC(O)CO)c2ccc3ncc(-c4ccc(N)nc4)nc3c2)c1 (stereo not shown) [Compound 74]
[1]
  IC50: > 10 µM

## COc1cc(OC)cc(N(CC2CC2)c2ccc3ncc(-c4nnnn4C)nc3c2)c1 [Compound 83]
[1]
  IC50: > 10 µM
[2]
  IC50: > 10 µM

## COc1cc(OC)cc(N(CC(O)C(F)(F)F)c2ccc3ncc(-c4cccnc4)nc3c2)c1 (single isomer, unassigned) [Compound 54]
[3]
  BAF3-FGFR 3 (PLUS IL3) 384 well pIC50: <5

## COc1cc(OC)cc(N(CC2CC2)c2ccc3ncc(Nc4cnn(C)c4)nc3c2)c1 [Compound 61]
[1]
  IC50: > 10 µM
[2]
  IC50: 3.98 µM

## COc1cc(OC)cc(N(CCCNCC(F)(F)F)c2ccc3ncc(-c4ccc(N(C)C(=O)OC(C)(C)C)nc4)nc3c2)c1 [Compound 127]
[1]
  IC50: > 10 µM

## COc1cc(OC)cc(N(CCO)c2ccc3ncc(-c4cccnc4)nc3c2)c1 [Compound 9]
[1]
  IC50: > 10 µM

## COc1cc(OC)cc(N(CC2CC2)c2ccc3ncc(-n4cncn4)nc3c2)c1 [Compound 50]
[1]
  IC50: > 10 µM
[2]
  IC50: > 10 µM

## COc1cc(OC)cc(N(CC2CC2)c2ccc3ncc(-n4cnc(C)c4)nc3c2)c1 [Compound 30]
[1]
  IC50: > 10 µM
[2]
  IC50: > 10 µM

## COc1cc(OC)cc(N(CC2CC2)c2ccc3ncc(-c4ocnc4C)nc3c2)c1 [Compound 104]
[1]
  IC50: > 10 µM

## COc1cc(OC)cc(N(CC2CC2)c2ccc3ncc(-c4ccnn4C)nc3c2)c1 [Compound 18]
[1]
  IC50: > 10 µM
[2]
  IC50: > 10 µM

## COCCN(c1cc(OC)cc(OC)c1)c1ccc2ncc(-c3ccn(C)c3)nc2c1 [Compound 6]
[1]
  IC50: > 10 µM

## COc1cc(OC)cc(N(CCCO)c2ccc3ncc(-c4cccnc4)nc3c2)c1 [Compound 112]
[1]
  IC50: > 10 µM

## COc1cc(OC)cc(N(CC2CC2)c2ccc3ncc(-c4ccn(CCO)c4)nc3c2)c1 [Compound 56]
[1]
  IC50: > 10 µM
[2]
  IC50: > 10 µM

## COc1cc(OC)cc(N(CCCO)c2ccc3ncc(-c4ccc(F)nc4)nc3c2)c1 [Compound 117]
[1]
  IC50: > 10 µM

From US10052320B2, “Substituted quinoxalines as FGFR kinase inhibitors” (ASTEX THERAPEUTICS LIMITED, priority 2011, dated 2018)
